According to patent US6916660B2, “Fluorescent sensor compounds for detecting saccharides” (North Carolina State University, priority 2002, dated 2005):
Like-named read-outs stand apart in the source and are kept apart here. Values belong to the compound of their own block, whether it stands above or below them.

Key:
[1] = system: HEPG2 cells; assay: Fluorescent labeling of fixed HEPG2 cells expressing sLex (microscopy, densitometry); type: cell-based; conditions: 1 μM compound
Experimental: (§1) Cell culture. HEPG2 and COS7 cells were maintained in RPMI media (G. E. Moore et al. (1967) J. Am. Med. Assoc. 199, 519-524) with 10% FBS (GIBCO). HEP3B cells were maintained in RPMI with 10% FBS and 1× sodium pyruvate and 1× non-essential amino acids (GIBCO).
(§2) Fluorescent labeling studies. 6-well plates were seeded with 1×10^6 cells per well and incubated at 37° C. and 5% CO2 for 48 h. The media was removed and cells were washed twice with 1×PBS. The cells were fixed with 1.5 mL of 1:1 methanol/PBS and incubated 20 minutes at 4° C. After incubation, the methanol/PBS solution was removed and cells were washed twice with PBS.
(§3) Diboronic acid compounds 7 were resuspended in 1:1 methanol/PBS and added to wells at 0.5 to 10 μM concentrations. One well was incubated only in methanol/PBS without compound as a negative control. The plates were then incubated in darkness at 4° C. for 45 min. Plates were examined with phase contrast microscopy followed by fluorescent microscopy (blue cube wavelengths 370 nm excitation, 426 nm emission; 20× lens). Plates were photographed using a Nikon DXM1200 digital camera and images captured with the Nikon ACT-1 program (v 2.10). The phase contrast and fluorescent images were then overlaid, organized and labeled using Adobe Photoshop 6.0. The images were quantified with NIH ImageJ 1.28. The units (mean gray value) were subtracted from background, where there are no cells. The fluorescent signal was stable for at least 96 h when cells were maintained in darkness.
(§4) HEPG2, a cell line that selectively expresses sLex on the surface, was selected for examination. To examine the selectivity of the sensor for cell surface sLex, HEP3B and COS7 cells were labeled in parallel. COS7 expresses none of the fucosylated antigens associated with carcinoma progression and HEP3B expresses only the Lewis Y antigen. See B. W. Weston et al. (1992) J. Biol. Chem. 267, 4152-4160; B. W. Weston et al. (1992) J. Biol. Chem. 267, 24575-24584.
(§5) HEPG2 and control cell lines were incubated with compound 7q, while three other diboronic acids (7b, 7d, 7y) were used as controls. […]

[2] = system: HEP3B cells; assay: Fluorescent labeling of fixed HEP3B cells expressing Lewis Y (microscopy, densitometry); type: cell-based; conditions: 1 μM compound
Experimental: as §1, §2, §3, §4, §5

[3] = Fluorescence titration of sensor compounds with galactose; type: binding; conditions: 50% MeOH/0.1 M phosphate buffer pH 7.4, sensor 1×10^−6 M, 25° C.
Experimental: (§6) The affinity and selectivity of the fluorescent sensor compounds (7) for glucose were evaluated. Specifically, 2 mL of a solution of each sensor compound (7) in methanol (2×10^−6 M) was mixed with 2 mL of aqueous saccharide phosphate buffer solution (pH 7.4) at various concentrations, and the fluorescence intensity recorded. […] This represents a 43- and 49-fold selectivity over fructose and galactose, respectively. In addition, fluorescence enhancement was very large (about 7-fold).

[4] = Fluorescence titration of sensor compounds with glucose; type: binding
Experimental: as §6

[5] = Fluorescence titration of sensor compounds with fructose; type: binding; conditions: 50% MeOH/0.1 M phosphate buffer pH 7.4, sensor 1×10^−6 M, 25° C.
Experimental: as §6

[6] = Solution binding studies with Lewis Y (data not shown)
[7] = Binding of fluorescent compounds 7 to sLex in solution (fluorescence intensity change); conditions: solution binding studies
Experimental: Diboronic acid compounds 7 were designed to show significant fluorescence intensity changes upon binding with a complementary carbohydrate. In screening for their binding with the target carbohydrate, sLex, the fluorescence intensity changes of solutions of the compounds upon addition of the carbohydrate were determined. These experiments were conducted in a mixture of methanol and 0.1 M phosphate buffer (pH 7.4) (1:1, v/v). Methanol was used to improve the solubility of the sensor compounds. The concentration of fluorescent sensor compound (7) (specific structures provided in FIG. 1, above) was fixed at 1×10^−5 or 1×10^−6 M, and the concentration of sLex was set at 60 μM.

[8] = Springsteen et al.; cited from earlier work
[9] = Springsteen et al.; cited from earlier work; remark: listed apart in the source

SMILES: CN(Cc1ccccc1B(O)O)Cc1c2ccccc2c(CN(C)C(=O)CCCCC(=O)N(C)Cc2c3ccccc3c(CN(C)Cc3ccccc3B(O)O)c3ccccc23)c2ccccc12 [Compound 7y]
- labeling of HEPG2 cells (mean gray value) [1]: recognized surface sLex and Lewis Y with equal avidity
- labeling of HEP3B cells (mean gray value) [2]: recognized surface sLex and Lewis Y with equal avidity

SMILES: CN(Cc1ccccc1B(O)O)Cc1c2ccccc2c(CN(C)C(=O)Cc2ccccc2CC(=O)N(C)Cc2c3ccccc3c(CN(C)Cc3ccccc3B(O)O)c3ccccc23)c2ccccc12 [Compound 7b]
- labeling of HEPG2 cells (mean gray value) [1]: did not recognize sLex on HEPG2 cells
- Ka for galactose [3]: 30 M⁻¹
- Ka for glucose ([4]; 50% MeOH/0.1 M phosphate buffer pH 7.4, sensor 1×10^−6 M, 25° C.): 1472 M⁻¹
- glucose concentration region of most sensitive fluorescence intensity changes ([4]; FIG. 8): mM region
- selectivity for glucose over fructose ([4]; ratio of Ka): 43 fold
- selectivity for glucose over galactose ([4]; ratio of Ka): 49 fold
- improvement in affinity for glucose compared with PBA ([4]; versus phenylboronic acid): about 300 fold
- improvement in selectivity for glucose over fructose compared with PBA ([4]; versus phenylboronic acid): about 1400 fold
- Ka for fructose [5]: 34 M⁻¹
- labeling of HEP3B cells (mean gray value) [2]: avidly bound Lewis Y-expressing HEP3B cells

- affinity for Lewis Y in solution [6]: low affinity
- affinity for sLex in solution [7]: low affinity
SMILES: CN(Cc1ccccc1B(O)O)Cc1c2ccccc2c(CN(C)C(=O)CCc2ccc(CCC(=O)N(C)Cc3c4ccccc4c(CN(C)Cc4ccccc4B(O)O)c4ccccc34)cc2)c2ccccc12 [Compound 7d]
- labeling of HEPG2 cells (mean gray value) [1]: did not label HEPG2 or HEP3B
- labeling of HEP3B cells (mean gray value) [2]: did not label HEPG2 or HEP3B

SMILES: OB(O)c1ccccc1 [PBA, phenylboronic acid]
- Ka for glucose [8]: 5 M⁻¹
- Ka for fructose [9]: 162 M⁻¹
